Reference: patent EP2970215B1, “PYRROLIDINE DERIVATIVES, PHARMACEUTICAL COMPOSITIONS CONTAINING THEM, AND THEIR USE IN THERAPY” (AbbVie Deutschland GmbH & Co. KG, priority 2013, dated 2014)

target: T1, human GlyT1c transporter (Homo sapiens, UniProt P48067); experiment: Radioligand binding assay using recombinant CHO cell membranes expressing human GlyT1; conditions: radioligand binding to human GlyT1c transporter-expressing membranes
T1 construct: expressed in transfected cells; host or cells: CHO cells (recombinant; line hGlyT1c_5_CHO is named for the uptake assay)
T1 sequence (P48067 1-706): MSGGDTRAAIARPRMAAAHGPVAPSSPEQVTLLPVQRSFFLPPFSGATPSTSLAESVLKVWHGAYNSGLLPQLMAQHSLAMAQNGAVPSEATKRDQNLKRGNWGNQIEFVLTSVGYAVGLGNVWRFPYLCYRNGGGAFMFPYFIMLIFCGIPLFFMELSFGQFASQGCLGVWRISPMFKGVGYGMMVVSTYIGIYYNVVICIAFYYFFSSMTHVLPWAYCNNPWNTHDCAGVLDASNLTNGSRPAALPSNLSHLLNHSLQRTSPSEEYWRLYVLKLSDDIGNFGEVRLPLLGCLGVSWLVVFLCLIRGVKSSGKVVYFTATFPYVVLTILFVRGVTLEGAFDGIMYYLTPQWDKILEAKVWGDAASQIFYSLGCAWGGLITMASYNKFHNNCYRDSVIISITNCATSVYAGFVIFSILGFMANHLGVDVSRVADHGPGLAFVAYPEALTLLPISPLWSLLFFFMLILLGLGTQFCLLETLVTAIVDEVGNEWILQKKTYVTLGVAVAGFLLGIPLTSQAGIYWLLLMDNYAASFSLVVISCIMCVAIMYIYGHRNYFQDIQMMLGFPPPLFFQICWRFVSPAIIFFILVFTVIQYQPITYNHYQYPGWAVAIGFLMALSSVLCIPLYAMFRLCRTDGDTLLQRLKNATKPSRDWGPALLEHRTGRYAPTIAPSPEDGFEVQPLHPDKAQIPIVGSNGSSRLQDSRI
Text: 2. Radioligand binding assays using recombinant CHO cell membranes expressing human GlyT1: […]

Row | SMILES | Ki [µM]
1 | Cn1ccc(S(=O)(=O)N2C[C@@H](NC(=O)c3cccc(C(F)(F)F)c3Cl)[C@H](c3ccccc3)C2)n1 (relative stereo) [Example 49, 2-chloro-N-{trans-1-[(1-methyl-1H-pyrazol-3-yl)sulfonyl]-4-phenylpyrrolidin-3-yl}-3-(trifluoromethyl)benzamide] | ≤ 10
2 | COc1ccc(N[C@@H]2CN(S(=O)(=O)c3cn(C)cn3)C[C@H]2c2ccccc2)cc1 (relative stereo) [Example 50, trans-N-(4-methoxyphenyl)-1-[(1-methyl-1H-imidazol-4-yl)sulfonyl]-4-phenylpyrrolidin-3-amine] | ≤ 10
3 | Cn1cnc(S(=O)(=O)N2C[C@@H](Nc3ccc(C#N)cc3)[C@H](c3ccccc3)C2)c1 (relative stereo) [Example 52, 4-({trans-1-[(1-methyl-1H-imidazol-4-yl)sulfonyl]-4-phenylpyrrolidin-3-yl}amino)benzonitrile] | ≤ 10
4 | Cn1cnc(S(=O)(=O)N2C[C@@H](Nc3ccc(C#N)cc3F)[C@H](c3ccccc3)C2)c1 (relative stereo) [Example 53, 3-fluoro-4-({trans-1-[(1-methyl-1H-imidazol-4-yl)sulfonyl]-4-phenylpyrrolidin-3-yl}amino)benzonitrile] | ≤ 10
5 | Cn1cnc(S(=O)(=O)N2C[C@@H](NC(=O)c3cccc(C(F)(F)F)c3Cl)[C@H](c3ccccc3F)C2)c1 (relative stereo) [Example 54, 2-chloro-N-{trans-4-(2-fluorophenyl)-1-[(1-methyl-1H-imidazol-4-yl)sulfonyl]pyrrolidin-3-yl}-3-(trifluoromethyl)benzamide] | ≤ 1
6 | Cn1cnc(S(=O)(=O)N2C[C@@H](NC(=O)c3cccc(C(F)(F)F)c3Cl)[C@H](c3cccc(F)c3)C2)c1 (relative stereo) [Example 55, 2-chloro-N-{trans-4-(3-fluorophenyl)-1-[(1-methyl-1H-imidazol-4-yl)sulfonyl]pyrrolidin-3-yl}-3-(trifluoromethyl)benzamide] | ≤ 1
7 | Cn1cnc(S(=O)(=O)N2C[C@@H](NC(=O)c3cccc(C(F)(F)F)c3Cl)[C@H](c3cccc(Cl)c3)C2)c1 (relative stereo) [Example 56, 2-chloro-N-{trans-4-(3-chlorophenyl)-1-[(1-methyl-1H-imidazol-4-yl)sulfonyl]pyrrolidin-3-yl}-3-(trifluoromethyl)benzamide] | ≤ 1
8 | Cc1cccc(N[C@@H]2CN(S(=O)(=O)c3cn(C)cn3)C[C@H]2c2ccccc2)c1 (relative stereo) [Example 58, trans-1-[(1-methyl-1H-imidazol-4-yl)sulfonyl]-N-(3-methylphenyl)-4-phenylpyrrolidin-3-amine] | ≤ 0.1
9 | Cn1cnc(S(=O)(=O)N2C[C@@H](NC(=O)c3ccc(C(F)(F)F)cc3Cl)[C@H](c3ccccc3)C2)c1 (relative stereo) [Example 60, 2-chloro-N-{trans-1-[(1-methyl-1H-imidazol-4-yl)sulfonyl]-4-phenylpyrrolidin-3-yl}-4-(trifluoromethyl)benzamide] | ≤ 0.1
10 | Cn1cnc(S(=O)(=O)N2C[C@@H](NC(=O)c3ccc(C(F)(F)F)c(Cl)c3)[C@H](c3ccccc3)C2)c1 (relative stereo) [Example 61, 3-chloro-N-{trans-1-[(1-methyl-1H-imidazol-4-yl)sulfonyl]-4-phenylpyrrolidin-3-yl}-4-(trifluoromethyl)benzamide] | ≤ 1
11 | Cn1cnc(S(=O)(=O)N2C[C@@H](NC(=O)c3ccc(C(F)(F)F)cc3Cl)[C@H](c3ccc(F)cc3)C2)c1 (relative stereo) [Example 62, 2-chloro-N-{trans-4-(4-fluorophenyl)-1-[(1-methyl-1H-imidazol-4-yl)sulfonyl]pyrrolidin-3-yl}-4-(trifluoromethyl)benzamide] | ≤ 0.1
12 | Cn1cnc(S(=O)(=O)N2C[C@@H](NC(=O)c3ccc(C(F)(F)F)c(Cl)c3)[C@H](c3ccc(F)cc3)C2)c1 (relative stereo) [Example 63, 3-chloro-N-{trans-4-(4-fluorophenyl)-1-[(1-methyl-1H-imidazol-4-yl)sulfonyl]pyrrolidin-3-yl}-4-(trifluoromethyl)benzamide] | ≤ 0.1
13 | Cn1cnc(S(=O)(=O)N2C[C@@H](NC(=O)c3ccc(C(F)(F)F)cc3)[C@H](c3ccc(F)cc3)C2)c1 (relative stereo) [Example 64, N-{trans-4-(4-fluorophenyl)-1-[(1-methyl-1H-imidazol-4-yl)sulfonyl]pyrrolidin-3-yl}-4-(trifluoromethyl)benzamide] | ≤ 0.1
14 | Cn1cnc(S(=O)(=O)N2C[C@@H](NC(=O)c3cc(Cl)cc(Cl)c3)[C@H](c3ccc(F)cc3)C2)c1 (relative stereo) [Example 65, 3,5-dichloro-N-{trans-4-(4-fluorophenyl)-1-[(1-methyl-1H-imidazol-4-yl)sulfonyl]pyrrolidin-3-yl}benzamide] | ≤ 1
15 | Cn1cnc(S(=O)(=O)N2C[C@@H](Nc3ccccc3C(F)(F)F)[C@H](c3ccccc3)C2)c1 (relative stereo) [Example 66, trans-1-[(1-methyl-1H-imidazol-4-yl)sulfonyl]-4-phenyl-N-[2-(trifluoromethyl)phenyl]pyrrolidin-3-amine] | ≤ 10
16 | Cn1cnc(S(=O)(=O)N2C[C@@H](Nc3cccc(C(F)(F)F)c3)[C@H](c3ccccc3)C2)c1 (relative stereo) [Example 67, trans-1-[(1-methyl-1H-imidazol-4-yl)sulfonyl]-4-phenyl-N-[3-(trifluoromethyl)phenyl]pyrrolidin-3-amine] | ≤ 0.01
17 | Cn1cnc(S(=O)(=O)N2C[C@@H](Nc3ccc(C(F)(F)F)cc3)[C@H](c3ccccc3)C2)c1 (relative stereo) [Example 68, trans-1-[(1-methyl-1H-imidazol-4-yl)sulfonyl]-4-phenyl-N-[4-(trifluoromethyl)phenyl]pyrrolidin-3-amine] | ≤ 1
18 | Cn1cnc(S(=O)(=O)N2C[C@@H](Nc3ccccc3F)[C@H](c3ccccc3)C2)c1 (relative stereo) [Example 69, trans-N-(2-fluorophenyl)-1-[(1-methyl-1H-imidazol-4-yl)sulfonyl]-4-phenylpyrrolidin-3-amine] | ≤ 10
19 | Cn1cnc(S(=O)(=O)N2C[C@@H](Nc3cccc(F)c3)[C@H](c3ccccc3)C2)c1 (relative stereo) [Example 70, trans-N-(3-fluorophenyl)-1-[(1-methyl-1H-imidazol-4-yl)sulfonyl]-4-phenylpyrrolidin-3-amine] | ≤ 1
20 | Cn1cnc(S(=O)(=O)N2C[C@@H](Nc3ccc(F)cc3)[C@H](c3ccccc3)C2)c1 (relative stereo) [Example 71, trans-N-(4-fluorophenyl)-1-[(1-methyl-1H-imidazol-4-yl)sulfonyl]-4-phenylpyrrolidin-3-amine] | ≤ 1
21 | Cn1cnc(S(=O)(=O)N2C[C@@H](Nc3ccccc3Cl)[C@H](c3ccccc3)C2)c1 (relative stereo) [Example 73, trans-N-(2-chlorophenyl)-1-[(1-methyl-1H-imidazol-4-yl)sulfonyl]-4-phenylpyrrolidin-3-amine] | ≤ 10
22 | Cn1cnc(S(=O)(=O)N2C[C@@H](Nc3cccc(Cl)c3)[C@H](c3ccccc3)C2)c1 (relative stereo) [Example 74, trans-N-(3-chlorophenyl)-1-[(1-methyl-1H-imidazol-4-yl)sulfonyl]-4-phenylpyrrolidin-3-amine] | ≤ 0.1
23 | Cn1cnc(S(=O)(=O)N2C[C@@H](Nc3ccc(Cl)cc3)[C@H](c3ccccc3)C2)c1 (relative stereo) [Example 75, trans-N-(4-chlorophenyl)-1-[(1-methyl-1H-imidazol-4-yl)sulfonyl]-4-phenylpyrrolidin-3-amine] | ≤ 1
24 | Cn1cnc(S(=O)(=O)N2C[C@@H](Nc3cc(C#N)ccc3F)[C@H](c3ccccc3)C2)c1 (relative stereo) [Example 76, 4-fluoro-3-({trans-1-[(1-methyl-1H-imidazol-4-yl)sulfonyl]-4-phenylpyrrolidin-3-yl}amino)benzonitrile] | ≤ 10
25 | Cn1cnc(S(=O)(=O)N2C[C@@H](Nc3cccc(C#N)c3F)[C@H](c3ccccc3)C2)c1 (relative stereo) [Example 77, 2-fluoro-3-({trans-1-[(1-methyl-1H-imidazol-4-yl)sulfonyl]-4-phenylpyrrolidin-3-yl}amino)benzonitrile] | ≤ 1
26 | Cn1cnc(S(=O)(=O)N2C[C@@H](Nc3cc(F)cc(C#N)c3)[C@H](c3ccccc3)C2)c1 (relative stereo) [Example 78, 3-fluoro-5-({trans-1-[(1-methyl-1H-imidazol-4-yl)sulfonyl]-4-phenylpyrrolidin-3-yl}amino)benzonitrile] | ≤ 1
27 | Cn1cnc(S(=O)(=O)N2C[C@@H](Nc3ccc(Cl)c(C#N)c3)[C@H](c3ccccc3)C2)c1 (relative stereo) [Example 79, 2-chloro-5-({trans-1-[(1-methyl-1H-imidazol-4-yl)sulfonyl]-4-phenylpyrrolidin-3-yl}amino)benzonitrile] | ≤ 1
